Experimental data from patent publication US20250199004A1, “METHODS OF EVALUATING TREATMENT OUTCOME IN HIGH GRADE SEROUS OVARIAN CANCER” (THE REGENTS OF THE UNIVERSITY OF COLORADO, A BODY CORPORATE, priority 2018, published 2025).

Experiments:
Assay type in all cases: cell-based, human
[1] = system: TMEFF1 expression in OVCAR4 cells; assay: TMEFF1 (CBX2 target gene) expression by qPCR; conditions: qPCR after treatment of OVCAR4 cells
Description: Ten candidate inhibitors were evaluated based on their ability to inhibit HGSOC cell viability. Dose response assays of all 10 inhibitors were conducted in OVCAR4, PEO1, and COV504 HGSOC cell lines to determine half inhibitory concentration (IC50) (FIG. 12 Panel A). We explored ability of these compounds to downregulate a CBX2 target gene, transmembrane protein with EGF-like and two follistatine-like domains 1 (TMEFF1) (FIG. 12 Panel B).
RNA was isolated using RNAeasy Plus Mini Kit (Qiagen, Hilden Germany) according to the manufacturer's protocol. NanoDrop spectrophotometry was used to measure concentration of extracted RNA. Luna Universal One-step RT qPCR kit (New England BioLabs, Ipswich, MA) was used on BioRad CFX96 (Bio-Rad, Hercules, CA). HPRT or GAPDH were used as internal control as stated in figure legend.

[2] = system: CBX2; assay: CBX2 knockdown confirmed via qPCR and immunoblots; conditions: shRNA transduced into OVCAR4, PEO1 and OVCAR8 cells; vs shControl
From the text: To further elucidate the role of CBX2 in HGSOC, we evaluated the impact of CBX2 modulation in PEO1, OVCAR4, and OVCAR8 HGSOC cell lines. One of the two independent small hairpin RNAs (shRNA) specific for CBX2 or a control (shControl) were transduced into OVCAR4, PEO1, and OVCAR8 cells. CBX2 knockdown was confirmed via quantitative PCR (qPCR) and immunoblots, with approximately 60% knockdown in the presence of shCBX2 #1 and 30% knockdown in the presence of shCBX2 #2 (FIG. 2A Panels C, D; and FIG. 3A Panels B-D). […] OVCAR4 and PEO1 CBX2 knockdown cells were plated in adherent (2D) conditions and for 96 h gLuc activity was measured every 24 h. […] OVCAR4 and PEO1 CBX2 knockdown cells were plated in forced suspension conditions and gLuc activity was monitored every 24 h for 96 h and cell viability was determined for cells grown in forced suspension. […] Spheroid diameter was measured for at least 50 spheroids in each condition and used as a surrogate for cell number. […]
Cell lysis was performed using radioimmunoprecipitation assay (RIPA) buffer (150 mM sodium chloride, Triton X-100, 0.5% sodium deoxycholate, 0.1% SDS [sodium dodecyl sulfate], 50 mM Tris, pH 8.0) supplemented with complete EDTA-free protease inhibitor cocktail (Roche), as well as NaF and NaV. Protein was quantified using bicinchoninic acid (BCA) protein assay (Thermo Fisher Scientific, Waltham, MA) and spectrophotometry. […]

[3] = system: aldehyde dehydrogenase (ALDH); assay: Aldefluor assay with flow cytometry; conditions: OVCAR4 cells, adherent and suspended, 7 days; negative control
From the text: The panels of FIG. 9A and FIG. 9B are as follows. Panel A: CBX2-associated genes were cross-referenced with a gene set for stemness. Percentage indicates overlap of stemness gene set with CBX2-associated genes. Panel B: OVCAR4 cells grown in adherent and suspended settings for 7 days. Aldefluor assay and flow cytometry were utilized to determine the percentage of cells that were positive for aldehyde dehydrogenase (ALDH), a marker of stemness. […] Panel C: As above, OVCAR4 cells grown in adherent and suspended settings for 7 days. Bar graph compares the percentage of cells ALDH positive control (+DEAB) to cells without DEAB (experimental) in adherent and suspended settings. Statistical test=two-sided t-test. F Test p=0.1136. Panel D: OVCAR4 cells with shControl, shCBX2 #1 and #2 cultured in suspension over 7 days. Aldefluor assay and flow cytometry again utilized to determine the percentage of cells ALDH positive. Statistical test=two-sided t-test. F-test p=0.83 Panel E: Utilizing the TCGA (HGSOC, Nature, 2011, n=489) dataset, a scatter plot CBX2 expression was correlated to ALDH3A1 expression. Spearman correlation r=0.2123 and p-value<0.0001. Panel F: RT-qPCR of ALDH3A1 in OVCAR4 cells cultured in adherent and suspension conditions with CBX2 knockdown (shCBX2 #1). Statistical test =ANOVA. […]

Compound | TMEFF1 expression [1] | CBX2 knockdown [2] | other results
CCc1c(C(=O)C(N)=O)c2c(OCC(=O)O)cccc2n1Cc1ccccc1 [LY315920] | significantly inhibited | – | –
Cc1nc2ccc(CN(C)c3ccc(C(=O)N[C@@H](CCC(=O)O)C(=O)O)s3)cc2c(=O)[nH]1 [raltitrexed] | significantly inhibited | – | –
shCBX2 #1: CBX2-specific short hairpin RNA, GCCAAGGAAGCTCACTGCCAT (SEQ ID NO:19) (expressed or natural sequence; listed as Homo sapiens) | – | approximately 60% | –
CCN(CC)c1ccc(C=O)cc1 [DEAB, Diethylaminobenzaldehyde] | – | – | ALDH activity [3]: prevented the increase
CC(=O)Nc1ccc(OC[C@](C)(O)C(=O)Nc2ccc([N+](=O)[O-])c(C(F)(F)F)c2)cc1 [GTX-007] | significantly inhibited | – | –
shCBX2 #2: CBX2-specific short hairpin RNA, ACGGAAAGGAACAGGAAGCAT (SEQ ID NO:20) (expressed or natural sequence; listed as Homo sapiens) | – | ~30% | –
